Experimental data as given in patent US9023806B2, “Peptide capable of altering tubulin polymerization and use thereof for inhibiting cell proliferation” (Universite d'Angers, priority 2004, dated 2015).
Entries after “also recorded” stand apart in the source; their conditions may differ.

Assays:
tubulin [1] = experiment: Peptide-on-membrane chip blot overlay with purified tubulin; type: binding, mice; details: purified tubulin overnight at 4° C., anti-βIII tubulin antibody
Excerpt: Peptide chips corresponding to the NFL, NFM and NFH neurofilament subunits were obtained according to Frank et al., 1992, with an ASP 222 automat spot robot. Each neurofilament sequence was divided into sequences of 15 amino acids.
These peptides overlap 12 amino acids of the next peptide. The overlapping peptides were synthesized on spots, like a chip, on a specially produced cellulose membrane (AIMS scientific product, GmbH, Braunschweig, Germany). The peptides are bound to the membrane with a polyethylene glycol bridge owing to their carboxy-terminal amino acid. The synthetic procedure followed is that of Frank et al., 1996.
Alternatively, the strips that were detected were cut out and analyzed by mass spectrometry. The peptide-on-membrane chip was incubated overnight at 4° C. with purified tubulin. After extensive washing with TBS (1×) the membranes were incubated with anti-βIII-tubulin antibodies in order to detect the amino acid sequences that interact with tubulin.
In order to identify the sequences responsible for the binding of tubulin to the neurofilaments, we use peptide-on-membrane chips, corresponding to the three neurofilament subunits (see experimental procedures). This method makes it possible to identify the binding domain involved in protein-protein interaction. […] The NFL subunit contains two tubulin binding sequences of 24 amino acids which we call NFL-TBS1 and NFL-TBS2 whereas NFM-TBS and NFH-TBS both contain 39 amino acids (FIG. 2A). […]

tubulin [2] = experiment: Spectrophotometric (turbidimetry, OD 350 nm) analysis of microtubule polymerization; type: biochemical, mice; details: for influence on polymerization of microtubules (inhibition or activation): in vitro turbidimetry
Protocol: The alteration of tubulin polymerization is measured by measuring the turbidity (optical density at 350 nm) of a tubulin suspension. A decrease in turbidity of at least 1% is a sign of inhibition of tubulin polymerization.
The polymerization of tubulin from the supernatant S3 of a microtubule preparation was investigated by turbidimetry. Briefly, the supernatant S3 (3 mg/ml) was incubated at 37° C. in the presence of 1 mM of GTP in a Helios α thermospectronic spectrophotometer to monitor the variations in optical density at 350 nm.
To test this hypothesis, we conducted turbidimetry experiments with the various peptide sequences identified by blot overlay on the peptide chip. For this purpose, the supernatant S3 (containing free tubulin), obtained from a microtubule preparation, was polymerized at 37° C. in the presence of 1 mM GTP and several concentrations (3, 10, 30, and 100 μM) of tubulin binding peptide, which were added before polymerization (t=0).
As previously for the NF-TBS peptides, studies of the influence of the peptides of vimentin, cytokeratin and GFAP identified by peptide chip on the assembly of microtubules in vitro were carried out by the same technique as described previously in the Material and Method section (Spectrophotometric analysis of microtubule polymerization) in Example 1.

T98G cells [3] = experiment: FACS (flow cytometry) cell cycle analysis; type: cell-based
Excerpt: (B-B′): Analysis by flow cytometry of control cells and cells treated with the peptides SEQ ID No. 6.
The microtubules constitute an important component of the achromatic spindle. To determine whether the presence of peptides SEQ ID No. 6 could affect cell division, the inventors usually carry out a FACS (Fluorescence Activated Cell Sorter) analysis to compare the distribution of the cycles of control cells and T98G cells treated with 10 μm of peptide SEQ ID No. 6.
In order to determine how a peptide that is an activator of microtubule polymerization affects cell division, a FACS analysis was carried out to compare the distribution of the cycles of untreated T98G cells (without peptide) or treated with 100 μm of peptide GFAP-TBS1 (SEQ ID No. 26), by the same protocol as that described in Example 2.

T98G cells [4] = experiment: MTS cell proliferation test; type: cell-based
Excerpt: The effect of exposure of peptide SEQ ID No. 6 on cell proliferation was confirmed using MTS analysis (described in Cory A. H. et al., 1991, Cancer Commun. 3, 207-212, incorporated here by reference) in which the inventors observed fewer cells in the cultures treated with peptide SEQ ID No. 6 (FIG. 8C).

T98G cells [5] = experiment: Peptide uptake and in-situ microtubule network by immunofluorescence; type: cell-based; details: 6 hours
Protocol: (A-A′-A″): The T98G cells are treated with the peptides SEQ ID No. 6 (10 μM) for 6 hours and the microtubules are then detected using an anti-tubulin antibody (red) and the biotinylated peptides SEQ ID No. 6 are detected using Alexa-labeled avidin (green).
To determine whether they could also modify the in-situ assembly of microtubules, T98G cells were incubated with 10 μm of biotinylated peptides SEQ ID No. 6. After incubation for 6 hours, more than 75% of the cells contain the peptide (FIG. 8 A, A′, A″) and are characterized by an unusual spherical shape.

| Sequence | tubulin binding site detected on peptide chip (tubulin [1]) | influence on polymerization of microtubules (inhibition or activation) (tubulin [2]) | other results |
| --- | --- | --- | --- |
| SSPVFPRAGFGTKGSSSSMTSRVYQVSRTSGGAGGLGSLRSSRLGTTRAPSYGA (listed as Mus musculus) [Des-TBS2] | tubulin binding sites | – | – |
| GGAYVTRSSAVRLRSSVPGVRLLQ (listed as Mus musculus) [Vim-TBS2] | tubulin binding sites | activate microtubule polymerization | – |
| MSQAYSSSQRVSSYRRTFGGAPGFSLG (listed as Mus musculus) [Des-TBS1] | tubulin binding sites | – | – |
| QIKSLNNKFASFIDKVRFLEQ (listed as Mus musculus) [Ker-TBS2] | tubulin binding sites | – | – |
| MERRRITSARRSYASETVVRGLGP (listed as Mus musculus) [GFAP-TBS1] | tubulin binding sites | activate microtubule polymerization | cell cycle effect compared with control cells (T98G cells [3]; 100 μM, 36 hours): strong stopping in phase G1; also recorded: inhibits cell division |
| VRGLGPSRQLGTMPRFSLSRMTPPLPARVDFSLAGA (listed as Mus musculus) [GFAP-TBS2] | tubulin binding sites | – | – |
| GSEVHTKKTVMIKTIETRDGE (listed as Mus musculus) [Des-TBS3] | tubulin binding sites | – | – |
| MSTRSVSSSSYRRMFGGS (listed as Mus musculus) [Vim-TBS1] | tubulin binding sites | – | – |
| YSSYSAPVSSSLSVRRSYSSSSGS (listed as Mus musculus) [NFL-TBS2] | tubulin binding domains | powerful effect; also recorded: inhibitors of microtubule polymerization | inhibition of tubulin polymerization (tubulin [2]; 100 μM peptide, supernatant S3, 37° C., 1 mM GTP): 100%; proliferation of T98G cells relative to untreated control (T98G cells [4]; 10 μM for 48 hours, listed as SEQ ID No. 6): greatly reduced; also recorded: fewer cells; degradation or elimination of peptide during culture (T98G cells [4]; inferred from comparison with medium replaced at 24 hours): little (if any) degradation or elimination; inhibition of the increase in number of cells (T98G cells [4]; medium containing peptide replaced at 24 hours, data not shown): clearly observed; cell cycle effect compared with control cells (T98G cells [3]; 10 μM, 48 hours): strong stopping in phase G1; cells in phase G1 of mitosis (T98G cells [3]; 10 μm peptide, culture for 48 hours (untreated 39%)): 61%; microtubule network in cells containing the peptide (T98G cells [5]; 10 μM, anti-tubulin antibody, listed as SEQ ID No. 6): lack a typical microtubule network; also recorded: disunited network of microtubules; cells containing the peptide (T98G cells [5]; biotinylated peptide, 10 μm): more than 75% |
| FGYDPYFSTSYKRRYVETPRVHIS (listed as Mus musculus) [NFL-TBS1] | tubulin binding domains | – | – |
| SLPLVDTHSKRTLLIKTVETR (listed as Mus musculus) [Vim-TBS3] | tubulin binding sites | inhibitors of microtubule polymerization | – |
| MSIRVTQKSYKMSTSGPRAFSSRSFTSGPGARISSSSFSRVGSSSSSFRGSMGT (listed as Mus musculus) [Ker-TBS1] | tubulin binding sites | activate microtubule polymerization | – |
| SAGGSNTFSRTTKAVVVKKIETRDGKLVSE (listed as Mus musculus) [Ker-TBS3] | tubulin binding sites | – | – |
| AYRRVPTETRSSFSRVSGSPSSGFRSQSWSRGSPSTVSS (listed as Mus musculus) [NFM-TBS] | single binding sequence | – | – |
| KSVSEGHLKRNIVVKTVEMRD (listed as Mus musculus) [GFAP-TBS3] | tubulin binding sites | inhibitors of microtubule polymerization | – |
| RSAAGSSSGFHSWARTSVSSVSASPSRFRGAASSTDSLD (listed as Mus musculus) [NFH-TBS] | single binding sequence | – | – |
